The structures appear in SMILES notation. Bounds are passed on as bounds.

Chain of SIK2 (Q9H0K1 whole entry, species assumed): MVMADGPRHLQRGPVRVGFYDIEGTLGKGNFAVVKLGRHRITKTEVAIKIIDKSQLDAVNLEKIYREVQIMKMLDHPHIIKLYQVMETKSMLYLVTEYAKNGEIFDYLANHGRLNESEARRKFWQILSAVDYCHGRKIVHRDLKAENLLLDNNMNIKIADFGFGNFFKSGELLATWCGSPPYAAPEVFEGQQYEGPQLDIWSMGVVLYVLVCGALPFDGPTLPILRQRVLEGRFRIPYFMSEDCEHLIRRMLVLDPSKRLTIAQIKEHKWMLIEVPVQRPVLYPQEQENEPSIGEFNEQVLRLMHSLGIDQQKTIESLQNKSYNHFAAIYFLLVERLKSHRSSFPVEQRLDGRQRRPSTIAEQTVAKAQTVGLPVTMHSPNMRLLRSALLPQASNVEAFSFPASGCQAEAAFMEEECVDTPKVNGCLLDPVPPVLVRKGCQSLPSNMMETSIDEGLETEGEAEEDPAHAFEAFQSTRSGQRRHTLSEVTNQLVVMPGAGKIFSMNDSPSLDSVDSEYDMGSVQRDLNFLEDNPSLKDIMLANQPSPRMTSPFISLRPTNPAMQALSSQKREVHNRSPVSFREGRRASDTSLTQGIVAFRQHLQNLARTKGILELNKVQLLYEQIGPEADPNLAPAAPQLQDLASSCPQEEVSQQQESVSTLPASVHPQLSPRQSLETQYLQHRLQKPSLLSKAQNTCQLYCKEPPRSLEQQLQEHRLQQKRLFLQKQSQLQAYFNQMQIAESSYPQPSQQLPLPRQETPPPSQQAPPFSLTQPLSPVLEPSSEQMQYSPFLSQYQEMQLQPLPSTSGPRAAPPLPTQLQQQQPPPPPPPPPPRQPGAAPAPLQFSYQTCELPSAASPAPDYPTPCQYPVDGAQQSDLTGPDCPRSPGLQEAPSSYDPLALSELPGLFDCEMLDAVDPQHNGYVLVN

One assay has as its target SIK2 (Homo sapiens, UniProt Q9H0K1). The assay can be described thus: SIK2 Enzymatic Assay High Version 2 (High ATP).
Conditions: not given
The class given is biochemical. Put shortly:
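At room temperature, enzyme (6 nM, 2× final) was preincubated with compound for 30 min, then 6 mM ATP and 400 μM HDAC5tide (both 2× final) were added for 2 h. ADP formed was measured by ADP-Glo Max (2 h reagent, 1 h detection) using luminescence.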
The IC50 is the concentration that gives 50% inhibition. `CNC(=O)c1ccc(Nc2cc3cc(-c4cc(C)ncc4O[C@H]4C[C@H]5COC[C@@H](C4)N5CC(C)(C)O)ccn3n2)nc1` [Example 532, 6-[[5-[5-[[(1S,5R)-9-(2-hydroxy-2-methyl-propyl)-3-oxa-9-azabicyclo[3.3.1]nonan-7-yl]oxy]-2-methyl-4-pyridyl]pyrazolo[1,5-a]pyridin-2-yl]amino]-N-methyl-pyridine-3-carboxamide]: the IC50 was 0.0135 µM.
Still for that read-out and setting: under `Cc1cc(-c2ccn3nc(NC(=O)C4CC4)cc3c2)c(OC[C@H]2CCN2CC(F)(F)F)cn1` [Example 452, N-[5-[2-methyl-5-[[(2R)-1-(2,2,2-trifluoroethyl)azetidin-2-yl]methoxy]-4-pyridyl]pyrazolo[1,5-a]pyridin-2-yl]cyclopropanecarboxamide] stands 0.015 µM; under `CNC(=O)c1ccc(Nc2cc3cc(-c4cc(C)ncc4O[C@H]4C[C@H]5COC[C@@H](C4)N5C(C)C)ccn3n2)nc1` [Example 531, 6-[[5-[5-[[(1S,5R)-9-isopropyl-3-oxa-9-azabicyclo[3.3.1]nonan-7-yl]oxy]-2-methyl-4-pyridyl]pyrazolo[1,5-a]pyridin-2-yl]amino]-N-methyl-pyridine-3-carboxamide], 0.00144 µM.
Still for that read-out and setting: under `Cc1cc(-c2ccn3nc(Nc4cc(C(F)(F)F)ccn4)cc3c2)c(O[C@H]2C[C@H]3COC[C@@H](C2)N3C)cn1` [Example 413, 5-[2-methyl-5-[[(1R,5S,7s)-9-methyl-3-oxa-9-azabicyclo[3.3.1]nonan-7-yl]oxy]-4-pyridyl]-N-[4-(trifluoromethyl)-2-pyridyl]pyrazolo[1,5-a]pyridin-2-amine] stands less than 0.000847 µM; under `Cc1cc(-c2ccn3nc(NC(=O)C4CC4)cc3c2)c(OCC2NCC23CCOCC3)cn1` (racemic) [Example 472, Racemic-N-[5-[2-methyl-5-(7-oxa-2-azaspiro[3.5]nonan-3-ylmethoxy)-4-pyridyl]pyrazolo[1,5-a]pyridin-2-yl]cyclopropanecarboxamide], 0.0263 µM.
For `Cc1cc(-c2ccn3nc(Nc4cc(C)nc(C)n4)cc3c2)c(OCC2CCS(=O)(=O)N2)cn1` (racemic) [Example 353, (rac-)-N-(2,6-dimethylpyrimidin-4-yl)-5-[5-[(1,1-dioxo-1,2-thiazolidin-3-yl)methoxy]-2-methyl-4-pyridyl]pyrazolo[1,5-a]pyridin-2-amine], the IC50 was found to be 0.0451 µM.
The same measure, in the same setting: as for `CNC(=O)c1cccc(Nc2cc3cc(-c4cc(C)ncc4O[C@H]4C[C@H]5COC[C@@H](C4)N5C)ccn3n2)n1` [Example 407, N-methyl-6-[[5-[2-methyl-5-[[(1S,5R,7s)-9-methyl-3-oxa-9-azabicyclo[3.3.1]nonan-7-yl]oxy]-4-pyridyl]pyrazolo[1,5-a]pyridin-2-yl]amino]pyridine-2-carboxamide], the figure is 0.00849 µM; as for `Cc1cc(-c2ccn3nc(Nc4ccncn4)cc3c2)c(O[C@H]2C[C@H]3COC[C@@H](C2)N3)cn1` [Example 395, 5-[2-methyl-5-[[(1R,5S,7s)-3-oxa-9-azabicyclo[3.3.1]nonan-7-yl]oxy]-4-pyridyl]-N-pyrimidin-4-yl-pyrazolo[1,5-a]pyridin-2-amine], 0.000851 µM; as for `Cc1cc(-c2ccn3nc(NC(=O)C4(F)CC4)cc3c2)c(OC[C@H]2CCN2C)cn1` [Example 623, 1-fluoro-N-[5-[2-methyl-5-[[(2R)-1-methylazetidin-2-yl]methoxy]-4-pyridyl]pyrazolo[1,5-a]pyridin-2-yl]cyclopropanecarboxamide], 0.00644 µM.
`Cc1cc(-c2ccn3nc(NC(=O)C4CC4)cc3c2)c(OC[C@@H]2CCN2CCF)cn1` [Example 573, N-[5-[5-[[(2S)-1-(2-fluoroethyl)azetidin-2-yl]methoxy]-2-methyl-4-pyridyl]pyrazolo[1,5-a]pyridin-2-yl]cyclopropanecarboxamide] returned an IC50 of 0.074 µM.

Still in this assay, the particulars now being: enzyme 6 nM, 6 mM ATP and 400 μM HDAC5tide (each 2× final concentration); 30 minutes pre-incubation, 2 hours; ADP-Glo Max luminescence; read-out: SIK2 high ATP IC50 (μM) (Test Example 2).
Regarding `Cc1cc(-c2ccn3nc(Nc4cccnn4)cc3c2)c(OC[C@@H]2CN[C@H](C)CO2)cn1` [Example 513, 5-[2-methyl-5-[[(2S,5R)-5-methylmorpholin-2-yl]methoxy]-4-pyridyl]-N-pyridazin-3-yl-pyrazolo[1,5-a]pyridin-2-amine], the IC50 stood at 0.0275 µM.
As for `CC(C)(C#N)COc1cnc(OC(F)F)cc1-c1ccn2nc(Nc3cnccn3)cc2c1` [Example 707, 3-[[6-(difluoromethoxy)-4-[2-(pyrazin-2-ylamino)pyrazolo[1,5-a]pyridin-5-yl]-3-pyridyl]oxy]-2,2-dimethyl-propanenitrile], the IC50 is 0.0056 µM.
For the compound `Cc1cc(-c2ccn3nc(NC(=O)[C@@H]4C[C@H]4C)cc3c2)c(OC[C@@]23CN[C@@H](CO2)C3)cn1` [Example 234, (1R,2R)-2-methyl-N-[5-[2-methyl-5-[[(1R,4R)-5-oxa-2-azabicyclo[2.2.1]heptan-4-yl]methoxy]-4-pyridyl]pyrazolo[1,5-a]pyridin-2-yl]cyclopropanecarboxamide], the IC50 was found to be 0.00837 µM.
For `Cc1cc(-c2ccn3nc(Nc4cc(C)nc(C)n4)cc3c2)c(OC2CCC(C#N)CC2)cn1` (centres unmarked) [Example 552, 4-[[4-[2-[(2,6-dimethylpyrimidin-4-yl)amino]pyrazolo[1,5-a]pyridin-5-yl]-6-methyl-3-pyridyl]oxy]cyclohexanecarbonitrile], the IC50 turned out to be 0.00378 µM.
Still for that read-out and setting: as for `Cc1cc(-c2ccn3nc(Nc4cc(F)c(C(=O)NC5CC5)c(F)c4)cc3c2)c(O[C@H]2CC[C@H](O)CC2)cn1` [Example 614, N-cyclopropyl-2,6-difluoro-4-[[5-[5-(4-hydroxycyclohexoxy)-2-methyl-4-pyridyl]pyrazolo[1,5-a]pyridin-2-yl]amino]benzamide], the figure is 0.0879 µM.
`Cc1cc(-c2ccn3nc(Nc4cc(C)nc(C)n4)cc3c2)c(O[C@H]2CCS(=O)(=O)N(C)C2)cn1` (single isomer, unassigned) [Example 355, (*S)—N-(2,6-dimethylpyrimidin-4-yl)-5-[2-methyl-5-(2-methyl-1,1-dioxo-thiazinan-4-yl)oxy-4-pyridyl]pyrazolo[1,5-a]pyridin-2-amine]: the IC50 came to 0.00681 µM.
On to `Cc1cc(-c2ccn3nc(Nc4cc(C)nc(C)n4)cc3c2)c(O[C@H]2CC[C@@H](C#N)CC2)cn1` [Example 556, (1s,4s)-4-((4-(2-((2,6-dimethylpyrimidin-4-yl)amino)pyrazolo[1,5-a]pyridin-5-yl)-6-methylpyridin-3-yl)oxy)cyclohexane-1-carbonitrile], for which the IC50 worked out at 0.0371 µM.
Still for that read-out and setting: as for `Cc1cc(-c2ccn3nc(Nc4cc(C)nc(C)n4)cc3c2)c(OC[C@@H]2COC(C)(C)C2)cn1` (single isomer, unassigned) [Example 539, (*R)—N-(2,6-dimethylpyrimidin-4-yl)-5-[5-[(5,5-dimethyltetrahydrofuran-3-yl)methoxy]-2-methyl-4-pyridyl]pyrazolo[1,5-a]pyridin-2-amine], the figure is 0.0606 µM.
Still for that read-out and setting: as for `Cc1cncc(Nc2cc3cc(-c4cc(OC(F)F)ncc4OCC(C)(C)C#N)ccn3n2)n1` [Example 683, 3-[[6-(difluoromethoxy)-4-[2-[(6-methylpyrazin-2-yl)amino]pyrazolo[1,5-a]pyridin-5-yl]-3-pyridyl]oxy]-2,2-dimethyl-propanenitrile], the figure is 0.000974 µM.
The same measure, in the same setting: under `Cc1cc(Nc2cc3cc(-c4cc(O[C@@H](C)C#N)ncc4OCC(C)(C)C#N)ccn3n2)nc(C)n1` (single isomer, unassigned) [Example 681, (*S)-3-[[6-(1-cyanoethoxy)-4-[2-[(2,6-dimethylpyrimidin-4-yl)amino]pyrazolo[1,5-a]pyridin-5-yl]-3-pyridyl]oxy]-2,2-dimethyl-propanenitrile] stands 0.0347 µM; under `CC#Cc1cc(-c2ccn3nc(NC(=O)C4CC4)cc3c2)c(O[C@@H]2CNC[C@@H]2F)cn1` [Example 281, N-[5-[5-[(3R,4S)-4-fluoropyrrolidin-3-yl]oxy-2-prop-1-ynyl-4-pyridyl]pyrazolo[1,5-a]pyridin-2-yl]cyclopropanecarboxamide], 0.00102 µM.
Take `Cc1cc(Nc2cc3cc(-c4cc(OCC(F)(F)F)ncc4OCC(C)(C)C#N)ccn3n2)nc(C)n1` [Example 659, 3-[[4-[2-[(2,6-dimethylpyrimidin-4-yl)amino]pyrazolo[1,5-a]pyridin-5-yl]-6-(2,2,2-trifluoroethoxy)-3-pyridyl]oxy]-2,2-dimethyl-propanenitrile]: the IC50 was determined as 0.157 µM.
Turning to `Cc1cc(-c2ccn3nc(NC(=O)C4CC4)cc3c2)c(OC[C@]2(C#N)CCN(C)C2)cn1` (single isomer, unassigned) [Example 213, (*R)—N-[5-[5-[(3-cyano-1-methyl-pyrrolidin-3-yl)methoxy]-2-methyl-4-pyridyl]pyrazolo[1,5-a]pyridin-2-yl]cyclopropanecarboxamide], the IC50 came out at 0.0505 µM.
Consider `Cc1cc(-c2ccn3nc(Nc4cc(C)nc(C5CC5)n4)cc3c2)c(OCC(C)(C)C#N)cn1` [Example 310, 3-[[4-[2-[(2-cyclopropyl-6-methyl-pyrimidin-4-yl)amino]pyrazolo[1,5-a]pyridin-5-yl]-6-methyl-3-pyridyl]oxy]-2,2-dimethyl-propanenitrile], for which the IC50 is less than 0.000847 µM.
On to `Cc1cnc(OC[C@@H]2CNCCO2)c(-c2ccn3nc(NC(=O)C4CC4)cc3c2)c1` [Example 474, N-[5-[5-methyl-2-[[(2S)-morpholin-2-yl]methoxy]-3-pyridyl]pyrazolo[1,5-a]pyridin-2-yl]cyclopropanecarboxamide], for which the IC50 worked out at 0.0431 µM.
Consider `Cc1cc(Nc2cc3cc(-c4cc(OCC(F)(F)F)ncc4OC[C@H]4OCC[C@@H]4O)ccn3n2)nc(C)n1` [Example 499, (2R,3S)-2-[[4-[2-[(2,6-dimethylpyrimidin-4-yl)amino]pyrazolo[1,5-a]pyridin-5-yl]-6-(2,2,2-trifluoroethoxy)-3-pyridyl]oxymethyl]tetrahydrofuran-3-ol], for which the IC50 came out at 0.00352 µM.
